From patent US9497964B2, “Synergistic activity of peracetic acid and at least one SAR inducer for the control of pathogens in and onto growing plants” (AGRI-NEO INC., priority 2010, dated 2016)

System: Fusarium patch disease
Experiment: Fusarium patch on turfgrass in British Columbia Canada
Type: in vivo
Conditions: for % disease control vs untreated / mean # disease spots/plot: 0.6 kg/ha
Description: Creeping bentgrass was naturally inoculated with Fusarium patch disease. Four plots were assessed, and each plot was four square meters of mature turf. Four replicates were used per treatment. […] Azoxystrobin is a broad-spectrum fungicide with a single-site mode of action: it binds very tightly to the Qo site of Complex III in the mitochondrial electron transport chain of fungal pathogens. Thus the disease pest is prevented from generating ATP, so it dies for lack of metabolic energy. Azoxystrobin is itself extracted from certain Eastern European mushrooms reputed for their resistance to disease induced by other fungi. Azoxystrobin, marketed under the brand name of Heritage, is one of the commercial standards used in the management of Fusarium Patch disease on turf grass. It was against this reference that the efficacy of […] in controlling this pathogen was compared and contrasted.
Spray volume was one thousand liters per hectare. Three product applications were made. The interval between applications was 14 days.
Observations (disease symptoms, leaf damage due to product, and grass vigour) were made at the following intervals: • Immediately prior to each application. • Nine days after the last (third) application. • Sixty days after the last (third) application. • Ninety days after the last (third) application.

CO/C=C(/C(=O)OC)c1ccccc1Oc1cc(Oc2ccccc2C#N)ncn1 [Azoxystrobin]
% disease control vs untreated (Spring): 17%
mean # disease spots/plot (Spring): 10
% disease control vs untreated (Winter): 31%
mean # disease spots/plot (Winter): 9
reduction of disease incidence relative to the water-sprayed inoculated control (Azoxystrobin): 15-30%
